Laboratory results: publication PMC7456637, “Pharmacokinetic characterization of fluorocoxib D, a cyclooxygenase-2-targeted optical imaging agent for detection of cancer” (Journal of Biomedical Optics, 2020)
Several values for one entry are separate records, joined by “and”; a condition that tells them apart may be missing. Equal entries are not always repeated.

How the values were obtained:
[1] = Pilot safety study: serum chemistry profile; assay type: in vivo, dog; conditions: 3 days after single dose 1 mg/kg i.v.
Method: (§1) The animal studies were performed in the accordance with the University of Tennessee Institutional Animal Care and Use Committee (UT IACUC)-approved protocols and in an accordance with NIH guidelines. Individually housed research healthy female beagle dogs (Covance Research Product) with weights of 6.7 to 10.3 kg were used to assess the safety and pharmacokinetic parameters of fluorocoxib D administrated a dose of 1 mg/kg over 20 min intravenously (i.v.).
(§2) For single dose safety evaluation studies, we administrated fluorocoxib D at 1 mg/kg , i.v. using a preplaced cephalic or saphenous vein catheter over 20 min to six healthy research dogs following protocol as described previously.[38] Briefly, physical examinations for signs of potential drug toxicity were performed before, during, and daily for 3 days after fluorocoxib D administration. Physical assessment included auscultation of heart and lungs, abdominal palpation, body temperature, appetite, attitude, activity levels monitoring, and other health-related events. Hypersensitivity was evaluated by direct observation of each dog during treatment for clinical signs of an allergic reaction (facial swelling, flushing, urticaria, dyspnea, scratching, and changes of heart rates). […] Laboratory evaluations of blood and urine were carried out before and 3 days after fluorocoxib D administration to monitor signs of toxicity. Blood (up to 3 ml) was collected into ethylenediaminetetraacetic acid (EDTA) and heparin-treated tubes, and urine (up to 5 ml) was collected by cystocentesis or from the floor of the runs. The laboratory evaluation consisted of a complete blood count (CBC), serum chemistry profile, and complete urinalysis. The CBC evaluated total white blood cells (WBC) and hematocrit (HCT), in addition to absolute numbers of neutrophils, lymphocytes, monocytes, eosinophils, and platelets. The plasma chemistry profile evaluated blood urea nitrogen (BUN), creatinine, proteins (albumin, globulins, and total proteins), alanine aminotransferase (ALT), total bilirubin, glucose, and electrolytes. The complete urinalysis evaluated urine proteins, glucose, and ketones; a sediment examination and urine-specific gravity were validated as well for any possible signs of renal toxicity of fluorocoxib D. All laboratory tests were carried out at the Veterinary Medical Center of the University of Tennessee in Knoxville.

[2] = Pilot safety study: complete urinalysis; assay type: in vivo, dog
Method: as §1, §2

[3] = tested on: COX-2-expressing human 5637 cancer cells; experiment: Fluorocoxib D uptake by human 5637 cancer cells (fluorescence microscopy); assay type: cell-based; conditions: 50 nM, 30 min, COX-2-positive 5637 cells
Method: Human 5637 cells were seeded on four-chamber slides (Nalge Nunc, Rochester, New York) and grown until reached 70% to 80% confluence. […] The nuclei of cells were stained with DAPI for 10 min, and slides were mounted using an aqueous mounting medium. Images of cells were captured by a Leica DMi8 fluorescent microscope with Hamamatsu Orca Flash 4.0LT Digital CMOS Camera (Leica Microsystems Inc., Chicago, Illinois) using Leica Application Suite X software (LASX, Leica).

[4] = tested on: COX-2-expressing head and neck cancer (HNC); experiment: Fluorocoxib D uptake in HNC mass during rhinoscopy in a client-owned dog; assay type: in vivo; conditions: for Uptake of fluorocoxib D in HNC during rhinoscopy: 1 mg/kg i.v. over 20 min, half hour uptake, client-owned dog, chondrosarcoma
Method: The owners signed a consent form for enrolling their dog for our proof-of principal study. A nine-year old female-spayed Golden Retriever dog weighing 35 kg was presented for an acute onset of unilateral right-sided epistaxis of 5-day duration. Previous medical history included a grade 2 soft tissue sarcoma with a high mitotic index that was completely excised from her ventral neck ∼2 years prior with no signs of regrowth. Rhinoscopy and biopsy procedure in the dog was performed by board-certified veterinary internal specialists (SO and JS) in an accordance with a standard veterinary care and the UT IACUC-approved protocol. Fluorocoxib D was administrated i.v. 1 mg/kg over 20 min using a catheter, followed by a half hour uptake before initiation of rhinoscopy procedure. Rhinoscopy was used to obtain biopsy samples guided by uptaken fluorocoxib D in the computed tomography (CT)-identified head and neck cancer (HNC) mass. Rhinoscopy and biopsy procedures in dog were performed under general anesthesia using a 2.7-mm, 30-deg, 18-cm rigid scope (Karl Storz Veterinary Endoscopy) attached to a TRICAM PDD as described previously[38] using a custom-designed filter system for detection of fluorocoxib D ( λem 645±50 nm ). After complete recovery from the rhinoscopic examination and anesthesia in a quiet room, the client-owned dog was returned to its owners. The heat map images with adjusted hue saturation of fluorocoxib D signal (pink color) from normal tissue (upper three images) and HNC tumor (lower three images) obtained during rhinoscopy were generated using Adobe Photoshop CC2019 software ([…]) in order to better visualize the tumor and its margins. […]
The biopsy samples obtained during rhinoscopy procedures in dogs were formalin-fixed and paraffin-embedded and sectioned at 7-μm thin sections for histology and immunohistochemistry analysis for detection of COX-2 and Ki67 expression as described previously.[38] […] The tissue specimens were evaluated using a Leitz DMRB microscope. […]

COX2 = conditions: cited from earlier work
[5] = 3 days after single dose 1 mg/kg i.v., individual dogs, reference NEG, 1 mg/kg

In the case of `COc1ccc2c(c1)c(CC(=O)NCCCCNC(=O)c1ccc(C3=c4cc5c6c(c4Oc4c3cc3c7c4CCCN7CCC3)CCC[N+]=6CCC5)cc1)c(C)n2C(=O)c1ccc(Cl)cc1` [Fluorocoxib D, N -[(rhodamin-X-yl)but-4-yl]-2-[1-(4-chlorobenzoyl)-5-methoxy-2-methyl-1H-indol-3-yl]acetamide], the “TOT BILI (total bilirubin), After” value ([1]; dogs #1, #3, #6, reference range 0.1 to 0.6) is reported as 0.1 mg/dL, the “CREATI (creatinine), After” value ([1]; individual dogs #1-#6, reference range 0.3 to 1.1, 1 mg/kg) is reported as 0.8 mg/dL (3×) and 0.6 mg/dL (3×) and the “MAG (magnesium), After” value ([1]; individual dogs #1-#6, reference range 0.65 to 0.98, 1 mg/kg) is reported as 0.7 mmol/L (4×) and 0.8 mmol/L (2×). The “GLOB (globulin), After” value ([1]; individual dogs #1-#6, reference range 1.9 to 3.1, 1 mg/kg) was 2.3 g/dL (2×) and 2 g/dL (2×) and 2.6 g/dL and 2.1 g/dL, the “PHOS (phosphorus), After” value ([1]; individual dogs #1-#6, reference range 2.5 to 5.9, 1 mg/kg) was 3.5 mg/dL and 4.3 mg/dL and 3.3 mg/dL and 3.9 mg/dL and 3.4 mg/dL and 3.6 mg/dL and the “POTAS (potassium), After” value ([1]; individual dogs #1-#6, reference range 2.8 to 4.7, 1 mg/kg) was 3.9 mEq/L and 4.2 mEq/L and 3.7 mEq/L (2×) and 3.5 mEq/L and 3.8 mEq/L. The “ALBUM (albumin), After” value ([1]; individual dogs #1-#6, reference range 3.2 to 4.3, 1 mg/kg) was 3.1 L g/dL and 3.4 g/dL (2×) and 3 L g/dL and 3.5 g/dL and 3.3 g/dL, the “TOT. PROT (total proteins), After” value ([1]; individual dogs #1-#6, reference range 5.4 to 6.8, 1 mg/kg) was 5.4 g/dL (2×) and 5.7 g/dL and 5.6 g/dL (2×) and 5.2 L g/dL and the “BUN (blood urea nitrogen), After” value ([1]; individual dogs #1-#6, reference range 7 to 37, 1 mg/kg) was 12 mg/dL and 17 mg/dL (2×) and 14 mg/dL and 16 mg/dL and 19 mg/dL. For the same compound, the “CAL (calcium), After” value ([1]; individual dogs #1-#6, reference range 10 to 12, 1 mg/kg) was 9.5 L mg/dL and 10 mg/dL and 9.9 L mg/dL and 9.7 L mg/dL and 10.3 mg/dL and 9.4 L mg/dL, the “ALT (alanine aminotransferase), After” value ([1]; individual dogs #1-#6, reference range 18 to 100, 1 mg/kg) was 26 U/L (2×) and 23 U/L and 22 U/L (2×) and 25 U/L and the “GLUCO (glucose), After” value ([1]; individual dogs #1-#6, reference range 82 to 132, 1 mg/kg) was 94 mg/dL and 103 mg/dL and 100 mg/dL and 91 mg/dL and 105 mg/dL and 110 mg/dL. For the same compound, the “CHLOR (chlorine), After” value ([1]; individual dogs #1-#6, reference range 112 to 119, 1 mg/kg) was 111 L mEq/L and 114 mEq/L (2×) and 113 mEq/L and 112 mEq/L and 116 mEq/L, the “SOD (sodium), After” value ([1]; individual dogs #1-#6, reference range 141 to 147, 1 mg/kg) was 144 mEq/L and 146 mEq/L (2×) and 147 mEq/L (2×) and 148 H mEq/L and the “SP. GRAV (urine-specific gravity), After” value ([2]; 3 days after single dose 1 mg/kg i.v., individual dogs, 1 mg/kg) was 1.03 and 1.039 (2×) and 1.032 and 1.044. The “GLU-COSE (urine), After” value ([2]; 3 days after single dose 1 mg/kg i.v., individual dogs, reference NEG) was “NEG”, the “PRO-TEIN (urine), After” value ([2]; 3 days after single dose 1 mg/kg i.v., individual dogs, reference NEG-1+, 1 mg/kg) was “NEG (3×) and TRACE” and the “BLD/Hb (urine blood/hemoglobin), After” value [2, 5] was “NEG (2×) and TRACE (2×)”. The “KETO-NES (urine), After” value [2, 5] was “NEG (3×) and TRACE (2×)”, the “PH (urine pH), After” value ([2]; 3 days after single dose 1 mg/kg i.v., individual dogs, reference range 5 to 9, 1 mg/kg) was >9 H and 6 (3×) and 5.5 and the “Urine bacteria finding 3 days after administration” value ([2]; two dogs (#4 and #6), no pyuria, not thought relevant to toxicity) was “bacteriuria”. For the same compound, the “Uptake of fluorocoxib D by 5637 cells” value [3] was “Selective uptake”, the “Uptake of fluorocoxib D in HNC during rhinoscopy” value [4] was “uptake was detected” and the “Uptake of fluorocoxib D in HNC during rhinoscopy” value ([4]; listed as fluorocoxib D) was “Specific uptake of fluorocoxib D was detected”. For the same compound, the “Tumor-to-normal tissue ratio (T/N ratio) of fluorocoxib D signal” value ([4]; 1 mg/kg i.v., canine HNC, ImageJ, normal n=804 and tumor ROI n=866) was 3.7±0.9, the IC50 (COX2) was 230 nM and the “Ratio (COX1/COX2)” value (COX2; ratio of IC50 values) was 17.4.
